Read-outs that look alike come from different tables or passages of the source.
Tests used:
γ-secretase complex = γ-secretase complex (Homo sapiens, UniProt P49768); test: APP-C99 counter assay (GSI reporter assay); type: cell-based; set-up: AUC APP: scale not given here; settings: for curve fit information / Hill-slope: 14p APP assay DR; for remaining activity at 10 µM / remaining activity at 25 µM / remaining activity at […]: 24 h, APP-C99 counter assay, read-out: 3p-DR in % of DMSO counter; for remaining activity at […]: 1,25µM; for AUC APP: area under the 14-point dose-response curve, replicates averaged
Protocol: To this end, we used a previously established reporter gene-based GSI assay (APP-C99) (Fig. 3A), which measures γ-secretase activity through cleavage of amyloid precursor protein (APP), another protein processed by the γ-secretase complex[24]
Plasmids for APP and luciferase are described in[24] and the renilla plasmid described above generated for this project was used to normalize firefly values. 24 h post transfection cells were seeded on compound plates and cells were cultivated for 24 h before luciferase signals were read, as described.
Two-fold concentrations of compounds were diluted in 10 µl cell culture medium and brought to one-fold by seeding 10 µl containing 4000 cells of the respective cell type on each well of a 384-well plate, as described above. Analogous to the previous assays, all plates contained one DMSO and DAPT control column with the Notch reporter cell line (#A1-11) and a DMSO only and Notch inhibitor control plate was read before the measuring the screening plates. In addition, DAPT and DMSO were spotted in a dose response fashion, and a minimum of four replicates were read. Dose-responses of compounds were recorded in triplicates for each concentration reading out the dual luciferase reporters, as described above. Dose response assays were read together in one session. To measure compound effects, the different assays dose–response curves were fitted using the log(inhibitor) vs. response – Variable slope (model: Y = Bottom + (Top–Bottom)/(1 + 10^((LogIC50-X)*HillSlope)) equation.
A DMSO plate was read before measuring luciferase activity of compound spotted plates. APP firefly luciferase reporter assays were read with a signal integration time of 0.1 s, instead of 0.5 s used for the Notch reporter to reduce signal overlap between wells. […] The area-under-the-curve (AUC) was calculated on dose–response curves using Graphpad Prism.

Notch signalling = test: Notch reporter assay (12xCSL firefly luciferase / renilla luciferase, HEK293T Notch1ΔE reporter cell line clone #A1-11); type: cell-based; set-up: AUC Notch: scale not given here; settings: for Bottom (Emax): Emax indicated independent from assay constraints, in % (unit assumed); for IC50 / activity at 10 µM / activity at 25 µM / activity: Homo sapiens, HEK-293T; for activity: 1,25µM; for AUC Notch: area under the 14-point dose-response curve, replicates averaged
Text: To identify novel Notch inhibitors in an unbiased manner, we generated a novel Notch reporter construct, which records the level of Notch signalling immediately downstream of receptor activation rather than further downstream in the signalling cascade, for example at the level of Hes and Hey proteins (Fig. 1B). […] The reporter construct carries piggy-bac sequences at both ends of the promoter-reporter cassette as well as cSH4 insulator elements to reduce transcriptional noise[21] and was transfected into HEK293T cells. To achieve a robust level of Notch receptor activity in the HEK293T reporter cell line and to confine the search for inhibitors to compounds affecting the receptor function and eliminating the need for ligand activation, a truncated ligand-independent version of the Notch1 receptor, mimicking an S2-cleaved Notch1 receptor (Notch1ΔE) and spontaneously activated by S3-cleavage[22] (Fig. 1C) was introduced into the cell line carrying the reporter construct (Fig. 1D). In addition, an HSV-TK-renilla luciferase plasmid was introduced into the cell line as an internal control for normalisation of the reporter expression (Fig. 1D).
A de novo Notch reporter construct, composed of six dimeric CSL binding sites linked to a basic b-globin promoter and followed by a firefly luciferase gene and a PEST degradation domain was synthesised (GeneArt). The construct was stably introduced into HEK293T cells, and zeocin (0.1 mg/ml) or Puromycin (0.05 mg/ml (ThermoFisher, cat #R25001, #A1113803) were used as selection markers. A clonal cell line (clone #A1) with robust renilla expression and enhanced firefly luciferase expression upon transient transfection of Notch1 ICD or Notch1ΔE constructs was selected, and a UB6 promoter-Notch1DE construct was stably introduced into this cell line using Blasticidin (0.1 mg/ml; ThermoFisher, cat #A1113903) as a selection marker. Stable cell lines were generated by serial dilution and only clonal colonies were selected for further evaluation. To measure luciferase reporter activity, cells were washed in cold PBS, detached, and collected in pre-warmed cell culture medium and centrifugated for five min at 200xg. The cell pellet was resuspended in medium, cells were counted, and 4,000 cells were seeded in each well of a white 384 well plate (Corning #3670) in 20 µl medium containing either DMSO or the GSI DAPT (N-[N-(3,5-Difluorophenacetyl)-L-alanyl]-S-phenylglycine t-butyl ester, Sigma-Aldrich, cat #565784-M) and incubated for 24 h. The efficacy of the reporter gene system was determined by monitoring the level of luciferase activation in the absence or presence of different amounts of DAPT in several cell clones. Luciferase activity was assessed using the dual-GLO luciferase detection kit from Promega (cat # E2920), following the manufacturer’s instructions. A minimum of two technical replicates were measured per clone using a SpectraMaxi3 plate reader (Molecular Devices). Reporter activity of different clones and in response to DAPT was assessed by normalising firefly (Notch activity) to renilla luciferase signals. Normalised signals of individual clones cultivated in DMSO were then compared to corresponding signals generated with DAPT-treated cells. The cell clone with the strongest signal to control ratio (DMSO to DAPT) was then selected for further exploration (clone #A1-11).
37,966 compounds were spotted by the compound center at SciLifeLab (https://www.scilifelab.se/) on a total of 120 plates (Greiner #781080) at a fixed concentration of 10 µM and the screening process spanned five consecutive sessions. The layout of each plate contained one column for DMSO and one for DAPT controls to determine the quality and reliability of the data. DAPT controls were spotted at 10 µM and DMSO was spotted in an equimolar volume. In addition, plates spotted with only DMSO were utilized to investigate the impact of plate effects before and after each session. […]

[1] = bottom constrained to Emax of positive control LY-411575
[2] = 14p Notch assay DR, bottom constrained to Emax of positive control DAPT, read-out: approximated IC50
[3] = 14p Notch assay DR, log10 value, bottom constrained to Emax of positive control DAPT, read-out: approximated LogIC50 (converted)
[4] = 10 µM, primary screen, 24 h, unit from Fig. 2 legend, read-out: Primary screen at 10 µM (Notch reporter signal)
[5] = 10 µM, three-dose confirmation screen, unit from Fig. 2 legend, read-out: Hit confirmation at 10 µM (Notch reporter signal)
[6] = 10µM, 3-point DR confirmation screen, Notch reporter assay, read-out: inhibitor ratio in % of DMSO in 3 point DR
[7] = 10 µM, sheet conf vs counter 10 µM, same values as 3-point DR confirmation screen, read-out: Confirmation screen
[8] = 25µM, 3-point DR confirmation screen, Notch reporter assay, read-out: inhibitor ratio in % of DMSO in 3 point DR
[9] = 25 µM, Notch reporter 3-point dose-confirmation assay, sheet "conf vs counter 25 µM", read-out: Confirmation screen
[10] = 3-point DR confirmation screen, Notch reporter assay, read-out: inhibitor ratio in % of DMSO in 3 point DR
[11] = 14-point dose-response, Fig. 4, read-out: approximated IC50, Notch reporter assay

Row | Compound | remaining activity at 10 µM (γ-secretase complex) | remaining activity at 25 µM (γ-secretase complex) | remaining activity at […] (γ-secretase complex) | AUC APP (γ-secretase complex) | Bottom (Emax) (Notch signalling; 14p Notch assay DR) | IC50 (Notch signalling; [2]) | IC50 (Notch signalling; [3]) | activity at 10 µM (Notch signalling; [4]) | activity at 10 µM (Notch signalling; [5]) | activity at 10 µM (Notch signalling; [6]) | activity at 10 µM (Notch signalling; [7]) | activity at 25 µM (Notch signalling; [8]) | activity at 25 µM (Notch signalling; [9]) | activity (Notch signalling; [10]) | AUC Notch (Notch signalling) | Hill-slope (γ-secretase complex; [1]) | also measured
1 | O=C(Nc1nnc(-c2ccc3c(c2)OCCO3)o1)c1ccccc1F [CBK287405] | 137% | 153% | 124% | 502.9 | 15.0 | 3 µM | 3.16 µM | 36.4% | 44% | 44% | 44% | 37.6% | 37.6% | 85.1% | 288.0 |  | curve fit information (γ-secretase complex; [1]): IC50 indeterminate
2 | CCn1ncc(CN(C)C(=O)c2cc(-c3cccnc3)nc3ccc(Cl)cc23)c1C [CBK276708] |  |  |  | 735.5 | 29.2 | 10 µM | 10 µM |  |  |  |  |  |  |  | 559.0 |  | curve fit information (γ-secretase complex; [1]): IC50 indeterminate; IC50 (Notch signalling; [11]): > 5 µM
3 | O=C1NC(c2cccnc2)Nc2sc3c(c21)CCCC3 (stereo not shown) [CBK072377] |  |  |  | 497.7 | 89.1 |  |  |  |  |  |  |  |  |  | 364.0 | 0.0091 | approximated IC50, Notch reporter assay (Notch signalling; 14-point dose-response, Fig. 4): Indeterminate
4 | COc1cc(Nc2nc(-c3cccc(Cl)c3)cn3ccnc23)cc(OC)c1OC [CBK066271] |  |  |  | 485.9 | 87.7 |  |  |  |  |  |  |  |  |  | 348.0 | -16.9 | 
5 | CC1CCc2c(sc3ncnc(NCCCN4CCCCCC4=O)c23)C1 (stereo not shown) [CBK305947] | 118% | 144% | 96.6% | 578.1 | 34.4 | 7.1 µM | 7.94 µM | 41.4% | 66.5% | 66.5% | 66.5% | 46.7% | 46.7% | 107% | 316.0 | 0.121 | 
6 | CC(=O)Nc1cccc(-c2cn3ccnc3c(Nc3ccc(N4CCOCC4)cc3)n2)c1 [CBK066362] |  |  |  | 828.0 | 95.3 |  |  |  |  |  |  |  |  |  | 529.0 | 0.3 | 
7 | COc1ccc2[nH]c3c(c2c1)CCOC31CCN(Cc2ccccc2-c2ccccc2)CC1 [CBK040114] |  |  |  | 713.8 | 45.9 | 1.3 µM | 1.26 µM |  |  |  |  |  |  |  | 576.0 | 0.0153 | IC50 (Notch signalling; [11]): 1.4 µM
8 | COc1cccc(CNc2ccc(N3CCOCC3)cc2)c1OCc1ccccc1F [CBK074406] | 153% | 158% | 102% | 758.8 |  | 3.5 µM | 3.16 µM | 56.4% | 68% | 68% | 68% | 66.7% | 66.7% | 98.6% | 518.0 | 0.0527 | Hill-slope (γ-secretase complex; bottom constrained to Emax of positive control CB-103): 0.00965; IC50 (Notch signalling; 14p Notch assay DR, averaged when replicate measurements were available, read-out: averaged IC50s): 3.5 µM; IC50 (Notch signalling; 14p Notch assay DR, bottom constrained to Emax of positive control RO4929097, read-out: approximated IC50): 3.5 µM; IC50 (Notch signalling; 14p Notch assay DR, log10 value, bottom constrained to Emax of positive control RO4929097, read-out: approximated LogIC50 (converted)): 3.16 µM
9 | Cc1ccccc1Nc1nc(N)nc(CN2CCCC(C(F)(F)F)C2)n1 (stereo not shown) [CBK305073] | 129% | 156% | 92.5% | 566.4 | 32.5 | 5 µM | 5.01 µM | 39.6% | 65.1% | 65.1% | 65.1% | 48.4% | 48.4% | 102% | 305.0 | 0.121 | 
10 | Fc1ccc2[nH]c3c(c2c1)CCOC31CCN(Cc2ccccc2-c2ccccc2)CC1 [CBK039913] |  |  |  | 726.2 | 44.4 | 1.2 µM | 1.26 µM |  |  |  |  |  |  |  | 588.0 | 0.0284 | 
11 | COC(=O)c1cccc(N2C(=O)c3ccc(Oc4cccc(NC(C)=O)c4)cc3C2=O)c1 [CBK033640] |  |  |  | 553.6 | 91.5 |  |  |  |  |  |  |  |  |  | 399.0 | 0.0705 | 
12 | CC(=O)Nc1cccc(-c2cn3ccnc3c(Nc3ccccc3)n2)c1 [CBK066160] |  |  |  | 549.2 | 87.0 |  |  |  |  |  |  |  |  |  | 362.0 | -4.6e-12 | curve fit information (γ-secretase complex; [1]): IC50 indeterminate
13 | COc1cccc(Nc2nc(-c3cccnc3)cn3ccnc23)c1 [CBK103068] |  |  |  | 517.0 | 69.8 | > 40 µM | > 40 µM |  |  |  |  |  |  |  | 335.0 | 0.0551 | 

Reference: publication PMC13242511, “Disrupting Notch signalling by a small molecule inhibiting dihydroorotate dehydrogenase activity” (Scientific Reports, 2026)
